Columns and labels:
[1] = test system: ER-target genes; test: Expression of ER-target genes (GREB1, PR); format: cell-based; conditions: MCF7 and T47D
[2] = test system: ESR1 variants Y537S and D538G; test: In vitro ERα degradation in ESR1 variant cell lines; format: cell-based, human; conditions: FIG. 15
[3] = test system: T47D ESR1 D538G cells; test: Live-cell imaging growth studies and EC50 for growth inhibition, T47D ESR1 D538G; format: cell-based; conditions: Homo sapiens; T47D ESR1 D537G (so in the source); read-out: Approximate Half-maximal Effective Concentration (EC50) for growth inhibition
Description: MCF7, T47D, T47D ESR1 Y537S or T47D ESR1 D538G cells were seeded at 2×10^5 density per well in 6-well tissue culture-treated plates in DMEM/F12/10% FBS (2 mL total volume). […] The plate was then placed in the Incucyte® S3 Live-Cell Analysis System and images were acquired every 4 hours for a total of 5 days (120 hours). Data were analyzed using the Incucyte® Software v2020C which quantified cell surface area coverage as confluence values. Relative growth was calculated for all timepoints for all growth conditions relative to the confluence value observed for the control at 120 hours. Graphing and statistical analyses were performed using Graphpad Prism (GraphPad Software).

[4] = molecular target: T1, ERα (ESR1 Y537S) (Homo sapiens, UniProt P03372, Y537S); test: Tumor ERα levels in ESR1 (Y537S) PDX model; format: in vivo; conditions: for reduction of tumor ERα levels: ESR1 (Y537S) PDX, 28 days
T1 construct: a hormone-independent patient-derived xenograft model; from tissue; host or cells: ESR1 (Y537S) patient-derived xenograft tumour grown in mice
T1 sequence (P03372 1-595 Y537S): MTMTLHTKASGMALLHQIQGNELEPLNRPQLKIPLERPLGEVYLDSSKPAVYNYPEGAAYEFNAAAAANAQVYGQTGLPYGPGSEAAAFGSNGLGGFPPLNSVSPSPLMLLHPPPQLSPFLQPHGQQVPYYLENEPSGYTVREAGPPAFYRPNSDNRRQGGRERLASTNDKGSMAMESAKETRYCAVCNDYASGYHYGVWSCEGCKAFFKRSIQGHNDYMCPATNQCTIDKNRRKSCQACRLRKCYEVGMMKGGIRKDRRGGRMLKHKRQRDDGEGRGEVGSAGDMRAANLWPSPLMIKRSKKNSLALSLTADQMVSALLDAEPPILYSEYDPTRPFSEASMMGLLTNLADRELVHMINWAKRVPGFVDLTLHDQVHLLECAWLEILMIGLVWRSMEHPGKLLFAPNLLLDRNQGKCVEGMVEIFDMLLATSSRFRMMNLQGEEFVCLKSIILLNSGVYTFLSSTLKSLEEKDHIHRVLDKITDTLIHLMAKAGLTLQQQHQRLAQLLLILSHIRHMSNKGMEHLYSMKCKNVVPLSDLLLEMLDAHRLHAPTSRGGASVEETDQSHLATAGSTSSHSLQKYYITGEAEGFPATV

[5] = test system: MCF7 xenograft; test: MCF7 orthotopic xenograft, combination with PI3K inhibitor alpelisib; format: in vivo, NOD/SCID mice
Description: (§1) NOD/SCID female mice (Charles River, 6-7 weeks old upon arrival) were implanted with 17b-estradiol 0.72 mg 90-day pellets. The next day, each mouse was implanted with 5×10^6 MCF7 cells/100 mL in the axial mammary fat pad. Compound administration was initiated once the tumors reached 175-200 mm^3. Diet was supplemented with peanut butter to help maintain body weights. Dosing holidays occurred on days 6, 7, 8 and 9 due to body weight loss in some animals in study arms 3 and 4. […] (FIG. 31 and Table 15).
Dosing holidays occurred on days 6, 7, 8 and 9. Error bars represent standard deviation.
(§2) The ratio of Tween 80 to PEG-400 is 0.02 g Tween 80 to 1 ml PEG-400. PEG-400 is added to a pre-aliquoted volume of Tween 80. • For alpelisib: 1% carboxymethylcellulose (CMC), 0.5% Tween 80/DI water (‘CMC/Tween’) Sampling: tumors were measured twice weekly. Terminal sacrifice was ˜18 hr after last dose. Tumor volume calculation: Tumor Volume=(width×width×length)/2, where all measurements are in mm and the tumor volume is in mm^3. Tumor Growth Inhibition (TGI) calculation: TGI (%)

[6] = test system: MCF7 xenograft; test: MCF7 orthotopic xenograft, combination with mTOR inhibitor everolimus; format: in vivo, NOD/SCID mice
Description: as §1, with “[…] per” for “mL”, “weights.” for “weights. Dosing holidays occurred on days 6, 7, 8 and 9 due to body weight loss in some animals in study arms 3 and 4.”, “28” for “31”, “13).” for “15).”
Error bars represent standard deviation.
as §2, with “everolimus: 10% DMSO, 90% (2%” for “alpelisib: 1% carboxymethylcellulose (CMC), 0.5%”, “80, PEG 400) (DMSO/PEG/Tween)” for “80/DI water (‘CMC/Tween’)”

[7] = 28-day oral toxicology study in rats; format: in vivo; conditions: oral once daily 28 days
[8] = test system: ER-dependent cell lines; test: Cell proliferation of ER-dependent cell lines; format: cell-based
[9] = Compound (I-c) 30 mg/kg oral QD x 19
[10] = Compound (I-c) 30 mg/kg oral QD x 26

O=C1CC[C@H](N2Cc3cc(N4CCN(CC5CCN(c6ccc([C@@H]7c8ccc(O)cc8CC[C@@H]7c7ccccc7)cc6)CC5)CC4)ccc3C2=O)C(=O)N1 [Compound (I-c), (3S)-3-[5-[4-[[1-[4-[(1R,2S)-6-hydroxy-2-phenyl-tetralin-1-yl]phenyl]-4-piperidyl]methyl]piperazin-1-yl]-1-oxo-isoindolin-2-yl]piperidine-2,6-dione]
expression of classically-regulated ER-target genes [1]: decreases | degradation of clinically-relevant ESR1 variants Y537S and D538G [2]: degrades | EC50 [3]: 10 nM | reduction of tumor ERα levels ([4]; 10 mg/kg oral once daily): 79% | reduction of tumor ERα levels ([4]; 30 mg/kg oral once daily): 88% | mutant ER protein levels ([4]; ESR1 Y537S PDX, 10 mg/kg): significantly reduced | Day 19 Tumor Volume (mean ± SD) [5, 9]: 207 ± 62 mm^3 | TGI (% vehicle) [5, 9]: 95 % vehicle | tumor growth inhibition (TGI) ([5]; single agent 30 mg/kg oral once daily, 19 days, dosing holidays days 6-9): 95% | Day 26 Tumor Volume (mean ± SD) [6, 10]: 169 ± 77 mm^3 | TGI (% vehicle) [6, 10]: 102 % vehicle | tumor growth inhibition (TGI) ([6]; single agent 30 mg/kg oral once daily, 26 days): 102% | clinical signs of toxicity ([7]; doses up to 100 mg/kg/day): no clinical signs of toxicity | effects on overall animal health or well-being ([7]; up to 100 mg/kg/day): no effects on the overall animal health or well-being | cell proliferation of ER-dependent cell lines [8]: inhibits
